Measured values: ChEMBL document CHEMBL1135555 (Bioorg Med Chem Lett, 2002)
pIC50, pKi: −log10 of the molar value.

Key:
[1] = Inhibition of Phosphodiesterase 3 from rat diaphragm
[2] = molecular target: cGMP-specific 3',5'-cyclic phosphodiesterase (Rattus norvegicus, UniProt O54735); experiment: Inhibition of Phosphodiesterase 5 from rat diaphragm

`C=C(C)C(CCC(C)(C)O)Cc1c(O)cc(OC)c2c1O[C@H](c1ccc(O)cc1O)[C@H](O)C2=O` (stereo partly specified) gave a pIC50 [1] of 4.89 and a pIC50 [2] of 4.97.

In the case of `C=C(C)C(CCC(C)(C)O)Cc1c(O)cc(OC)c2c1O[C@H](c1ccc(O)cc1O)[C@@H](O)C2=O` (stereo partly specified), the pIC50 [1] was 4.87.

For `C=C(C)[C@H](CC=C(C)C)Cc1c(O)cc(OC)c(C(=O)/C=C/c2ccc(O)cc2O)c1O` [KURAIDIN], the pIC50 [1] was 5.90 and the pIC50 [2] was 6.19.

`C=C(C)[C@H](CCC(C)(C)O)Cc1c(O)cc(OC)c2c1O[C@H](c1ccc(O)cc1O)CC2=O` [KURARINOL] showed a pIC50 [1] of 5.53 and a pIC50 [2] of 5.21.

In the case of `Cc1[nH]c(=O)c(C#N)cc1-c1ccncc1` [MILRINONE], the pIC50 [1] was 6.13.

For `COc1cc(O)c(CC=C(C)C)c2oc(-c3ccc(O)cc3)c(O)c(=O)c12` [SOPHOFLAVESCENOL], the pIC50 [1] was 6.39, the pIC50 [2] was 7.89 and the pKi [2] was 8.30.
